Laboratory results reported in patent US20040057926A1, “Modulation of the immune response through the manipulation of arginine levels” (LSU Medical Center, priority 2002, published 2004).

Columns and labels:
[1] = test system: peritoneal macrophages (PM); experiment: Extra-cellular L-Arg concentration in supernatants of peritoneal macrophages (HPLC); assay type: cell-based, mice; conditions: for extra-cellular L-Arg levels (mean of three experiments): L-Arg 2 mM, NOHA 100 μM, Nor-NOHA 50 μM
Method: Jurkat T-cells, a CD4^+ cell line (Clone E6-1) (ATCC, Manassas, Va.) and normal stimulated T-cells were used to test the effect of ASE I, ASE II and iNOS produced by PM on CD3ζ expression. Six-week old female C57BL/6 mice were used to isolate peritoneal macrophages (PM). Briefly, 3 ml of thioglycolate-brewer (Becton Dickinson, San Jose, Calif.) were injected into the peritoneal cavity of mice for 3 days. Mice were then sacrificed and PM isolated by washing the peritoneum with HBSS. After 2 days of culture in RPMI with 4% fetal bovine serum, unattached cells were washed off and attached cells were used in co-cultures with Jurkat or normal T-cells.
(§1) PM were cultured in 6 well plates in RPMI containing 150 μM L-Arg and stimulated with murine rIL-4 (50 U/ml) and murine rIL-13 (50 ng/ml), or murine rIFN-γ (100 U/ml) for 24 hours. Then 1×10^6 normal T-cells stimulated with anti-CD3 plus anti-CD28 or 1×10^6 Jurkat cells, were cultured in the top chamber of a transwell system having 0.4 μm pores (Falcon, Franklin lakes, N.J.). CD3ζ expression was measured in Jurkat cells or T lymphocytes at different time points. PM were detached using trypsin/EDTA and the expression of protein and RNA for CAT-2B, ASE I, ASE II and iNOS was tested by western blot and northern blot respectively. Cytoplasmic extracts from PM were used to test ASE activity. Supernatants from stimulated PM were used to measure NO production using the Griess reagent method (Molecular Probes, Eugene, Oreg.). In addition, the extra-cellular concentration of L-Arg was tested in supernatants by HPLC (Dr. Gu Yao Wu laboratory, University of Texas) as described previously. O'Quinn, P. R., D. A. Knabe, and G. Wu. 2002. Arginine catabolism in lactating porcine mammary tissue. J Anim Sci. 80:467-474.

3LL lung carcinoma = experiment: Anti-tumor effect on 3LL lung carcinoma in C57Bl/6 mice; assay type: in vivo
Method: The anti-tumor effect of arginase inhibitor Nor-NOHA was also measured on these tumor cells. C57Bl/6 mice were injected with one million 3LL lung carcinoma cells on the flank. […] Control mice received normal saline solution. Tumors were measured and the tumor volume was calculated in cubic […]. […] Materials and methods for this example were similar to those described in the above examples.

T lymphocytes = experiment: Co-culture in transwells of stimulated PM and stimulated normal T lymphocytes, CD3ζ expression; assay type: cell-based, human
Method: T-cells were isolated from mononuclear cells of healthy donors by T-cell enrichment columns (R&D Systems, Minneapolis, Minn.) according to manufacturer specifications. T-cell purity (CD3+) ranged between 89-95%. The cycle of internalization and re-expression of the TCR-CD3 complex was induced by T-cell stimulation with 1 μg/ml of anti-CD3, 100 ng/ml of anti-CD28 (Becton Dickinson) and 10 μg/ml of goat anti-mouse IgG (KPL, Gaithersburg, Md.). Cells were stimulated in the absence of L-Arg and added to the co-cultures 24 h after stimulation.
as §1
Flow cytometry analysis was performed as previously described. Taheri, F., J. B. Ochoa, Z. Faghiri, K. Culotta, H. J. Park, M. S. Lan, A. H. Zea, and A. C. Ochoa. 2001. […] Fluorescence acquisition and analysis were done using a Coulter-EPICS XL flow cytometer (Beckman-Coulter) with a 488 nm argon laser. The data were expressed as mean channel fluorescence intensity (MFI).

ASE = ASE activity assay (L-ornithine production) in PM lysates; assay type: biochemical, mice; conditions: NOHA 100 μM, Nor-NOHA 50 μM
Method: Cell lysates from PM stimulated with IL-4+IL-13 or IFN-γ were tested for ASE activity by measuring the production of L-ornithine. In brief, cell lysates from PM stimulated with IL-4+IL-13 or IFN-γ in the presence or absence of NOHA or Nor-NOHA were added to 50 μl of Tris-HCl (50 mM; pH 7.5) containing 10 mM MnCl2. This mixture was heated at 55-60° C. for 10 min to activate ASE. The hydrolysis reaction from L-Arg to L-ornithine was identified by a colorimetric assay after the addition of ninhydrin solution and incubation at 37° C. for 1 h.

ASE I = experiment: Western blot for ASE I in PM cytoplasmic extracts; assay type: cell-based, mice
Method: Cytoplasmic extracts from PM, Jurkat cells or T lymphocytes were prepared as previously reported. Taheri, F., J. B. Ochoa, Z. Faghiri, K. Culotta, H. J. Park, M. S. Lan, A. H. Zea, and A. C. Ochoa. 2001. L-Arginine regulates the expression of the T-cell receptor zeta chain (CD3zeta) in Jurkat cells. Clin Cancer Res 7:958s-965s. Briefly, cells were resuspended in lysis buffer (50 mM HEPES, 150 mM NaCl, 5 mM EDTA, 1 mM NaOV4 and 0.5% Triton) containing 50 μg/ml of aprotinin, 50 μg/ml of leupeptin, 100 μg/ml of trypsin-chymotrypsin inhibitor and 2 mM PMSF. Lysates were centrifuged at 3000×g for 10 min at 4° C. Cytoplasmic extracts from Jurkat or T-cells were immunoblotted for CD3ζ and CD3ε. The expression ASE I, ASE II and iNOS was detected by immunoblot using PM extracts. GAPDH was used as housekeeping protein. Cytoplasmic extracts were electrophoresed in 12 or 8% Tris-Glycine gels (Novex, San Diego, Calif.), transferred to PVDF membranes and immunoblotted with the appropriate antibodies. The reactions were detected using the ECL kit (Amersham-Pharmacia).

Jurkat cells = experiment: Co-culture in transwells of stimulated PM and Jurkat cells, CD3ζ expression; assay type: cell-based
Method: as §1
Flow cytometry analysis was performed as previously described. Taheri, F., J. B. Ochoa, Z. Faghiri, K. Culotta, H. J. Park, M. S. Lan, A. H. Zea, and A. C. Ochoa. 2001. L-Arginine regulates the expression of the T-cell receptor zeta chain (CD3zeta) in Jurkat cells. Clin Cancer Res 7:958s-965s. Briefly, 5×10^5 Jurkat cells or T lymphocytes were washed once with Dulbecco phosphate-buffered saline 1× (D-PBS) and resuspended in 200 μL of D-PBS containing 1 μg of anti-CD3ε or isotype control. Cells were incubated for 15 min at 4° C., washed with D-PBS and resuspended in 200 μl D-PBS containing 500 μg/ml of digitonin plus 1 μg of anti-CD3ζ or 1 μg of isotypic control. Cells were incubated for 8 minutes after which they were washed and resuspended in 400 μl of D-PBS. Fluorescence acquisition and analysis were done using a Coulter-EPICS XL flow cytometer (Beckman-Coulter) with a 488 nm argon laser. The data were expressed as mean channel fluorescence intensity (MFI).

CAT-2B = CAT-2B mRNA expression in PM (northern blot); assay type: cell-based, mice
Excerpt: Anti-CD3ε-FITC, anti-CD3ζ-PE (Beckman-Coulter, Miami, Fla.) were used for flow cytometry. Mouse IgG1-FITC and mouse IgG1-PE (Beckman-Coulter) were used as isotype controls. Monoclonal antibodies against CD3ζ (Santa Cruz Biotechnologies, Santa Cruz, Calif.), CD3ε (DAKO, Carpinteria, Calif.), iNOS (Santa Cruz Biotechnologies), ASE I (Transduction-Becton Dickinson) and ASE II (a kind gift of Dr. Sidney Morris Jr) were used for western blots. To test the expression of CAT transporters mRNA, specific amplification products from RT-PCR of CAT-1, CAT-2A, CAT-2B and CAT-3 were purified from agarose gels and used as probes to detect CAT expression by northern blot. Murine full-length cDNA for glyceraldehyde-3 phosphate dehydrogenase (GAPDH) (1.6 Kb) (Clontech, Palo Alto, Calif.) was used as housekeeping control.
Two million PM stimulated with IL-4+IL-13 or IFN-γ were used for RNA extraction using lysis with TRIzol (Invitrogen-Gibco) following the manufacturer's specifications. Four micrograms of total RNA from each sample were electrophoresed under denaturing conditions, blotted onto nytran membranes (Schleicher & Schuell Inc, Keene, N.H.) and cross-linked by UV irradiation. Membranes were pre-hybridized at 42° C. in ULTRAhyb buffer (Ambion, Austin, Tex.) and hybridized overnight with 1×10^6 cpm/mL of ^32P-labeled probe. […]

| Molecule | extra-cellular L-Arg levels (mean of three experiments) ([1]; Non-stimulated PM) | extra-cellular L-Arg levels (mean of three experiments) ([1]; PM stimulated with IL-4 + IL-13) | rapid decrease in the extra-cellular levels of L-Arg ([1]; PM stimulated with IL-4+IL-13) | tumor growth (tumor volume) (3LL lung carcinoma; 20 or 40 mgs/kg subcutaneously, contralateral flank) | tumor growth, comparison of doses (3LL lung carcinoma; 40 mgs/kg, the highest dose tested) | CD3ζ in normal stimulated T lymphocytes co-cultured with IL-4+IL-13 activated PM (T lymphocytes) | intracellular ASE activity (ASE) | ASE I up regulation after IL-4+IL-13 stimulation (ASE I; NOHA 100 μM, Nor-NOHA 50 μM) | CD3ζ in Jurkat cells co-cultured with PM stimulated with IL-4+IL-13 (Jurkat cells; NOHA 100 μM, Nor-NOHA 50 μM, L-Arg 2 mM, L-NIL 5 μg/ml, catalase 200 U/ml, L-NMMA, L-NNA, L-NAME 1 mM) | change of extra-cellular L-Arg by stimulated PM ([1]; similar to unstimulated PM) | CAT-2B mRNA expression in stimulated PM (CAT-2B) | CD3ζ in stimulated T-cells co-cultured with cytokine-stimulated PM (T lymphocytes; transwells) | ASE I expression in PM stimulated with cytokines (ASE I; 24 hours) | expression of CD3ζ and CD3ε in Jurkat cells co-cultured with cytokine-stimulated PM (Jurkat cells; rIL-4 50 U/ml, rIL-13 50 ng/ml, rIFN-γ 100 U/ml) |
| --- | --- | --- | --- | --- | --- | --- | --- | --- | --- | --- | --- | --- | --- | --- |
| N=C(NO)NCC[C@H](N)C(=O)O [Nor-NOHA, N(omega)-hydroxy-nor-l-arginine] | 109.8 µM | 73.8 µM | partially blocked the rapid decrease | significant arrest of tumor growth | most effective | prevented the loss of CD3ζ | blocked intracellular ASE activity | did not prevent ASE I up regulation | prevented the decrease of CD3ζ | – | – | – | – | – |
| IFN-γ: murine rIFN-γ (100 U/ml), Th1 cytokine used to stimulate PM (protein, UniProt P01580 23-155, looked up) Interferon gamma: HGTVIESLESLNNYFNSSGIDVEEKSLFLDIWRNWQKDGDMKILQSQIISFYLRLFEVLKDNQAISNNISVIESHLITTFFSNSKAKKDAFMSIAKFEVNNPQVQRQAFNELIRVVHQLLPESSLRKRKRSRC | – | – | – | – | – | – | – | – | – | moderate decrease in L-Arg | no increase in CAT-2B mRNA | normal cycle of internalization and re-expression of CD3ζ within 48 hours | decrease ASE I expression | did not alter CD3ζ or CD3ε expression |
